Legend:
Format in all cases: in vivo
[1] = test system: Russian thistle (Salsola kali); test: Test C pre-/postemergence: Russian thistle; conditions: Preemergence
Source text: Seeds of plant species selected from blackgrass (Alopecurus myosuroides), bromegrass, downy (downy bromegrass, Bromus tectorum), foxtail, green (green foxtail, Setaria viridis), ryegrass, Italian (Italian ryegrass, Lolium multiflorum), winter wheat (Triticum aestivum), wild oat (Avena fatua), galium (catchweed bedstraw, Galium aparine), bermudagrass (Cynodon dactylon), surinam grass (Brachiaria decumbens), cocklebur (common cocklebur, Xanthium strumarium), corn (Zea mays), large crabgrass (Digitaria sanguinalis), woolly cupgrass (Eriochloa villosa), foxtail, giant (giant foxtail, Setaria faberii), goosegrass (Eleusine indica), johnsongrass (Sorghum halepense), kochia (Kochia scoparia), lambsquarters (Chenopodium album), morningglory (Ipomoea coccinea), nightshade (eastern black nightshade, Solanum ptycanthum), nutsedge, yellow (yellow nutsedge, Cyperus esculentus), pigweed (Amaranthus retroflexus), ragweed (common ragweed, Ambrosia elation), soybean (Glycine max), common (oilseed) sunflower (Helianthus annuus), Russian thistle (Salsola kali) and velvetleaf (Abutilon theophrasti) were planted into a blend of loam soil and sand and treated preemergence with test chemicals formulated in a non-phytotoxic solvent mixture which included a surfactant.
(§1) At the same time, plants selected from these crop and weed species and also barley (winter barley, Hordeum vulgare), canarygrass (Phalaris minor), chickweed (common chickweed, Stellaria media) windgrass (Apera spica-venti) and deadnettle (henbit deadnettle, Lamium amplexicaule) were planted in pots containing Redi-Earth® planting medium (Scotts Company, 14111 Scottslawn Road, Marysville, Ohio 43041) comprising spaghnum peat moss, vermiculite, wetting agent and starter nutrients and treated with postemergence applications of test chemicals formulated in the same manner. Plants ranged in height from 2 to 18 cm (1- to 4-leaf stage) for postemergence treatments.
(§2) Treated plants and controls were maintained in a greenhouse for 13 to 15 days, after which time all species were compared to controls and visually evaluated. Plant response ratings, summarized in Table C, are based on a scale of 0 to 100 where 0 is no effect and 100 is complete control. A dash (-) response means no test result.

[2] = test system: surinam grass (Brachiaria decumbens); test: Test C pre-/postemergence: surinam grass
Procedure, shortened: (§3)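 Preemergence on seeds in loam/sand, postemergence on 2–18 cm (1–4-leaf) plants in peat-based medium; compounds in non-phytotoxic solvent with surfactant. After 13–15 days in greenhouse, visual rating versus controls, 0 (no effect) to 100 (complete control).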

[3] = test system: windgrass (Apera spica-venti); test: Test C postemergence: windgrass
Source text: as §1, §2

[4] = test system: bromegrass, downy (downy bromegrass, Bromus tectorum); test: Test C pre-/postemergence: bromegrass, downy
Procedure, shortened: as §3

[5] = test system: barley (winter barley, Hordeum vulgare); test: Test C postemergence: barley
Source text: as §1, §2

[6] = test system: foxtail, green (green foxtail, Setaria viridis); test: Test C pre-/postemergence: foxtail, green
Procedure, shortened: as §3

[7] = test system: lambsquarters (Chenopodium album); test: Test D pre-/postemergence: lambsquarters
Procedure, shortened: (§4)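 Visual control ratings (0–100) after 14–21 days, controlled environment. Preemergence on silt loam; postemergence on 2–18 cm plants.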

[8] = test system: pigweed (Amaranthus retroflexus); test: Test D pre-/postemergence: pigweed
Procedure, shortened: as §4

[9] = test system: oilseed rape (Brassica napus); test: Test D pre-/postemergence: oilseed rape
Procedure, shortened: as §4

[10] = test system: galium (catchweed bedstraw, Galium aparine); test: Test D pre-/postemergence: galium; conditions: Postemergence; for Plant response rating, Galium: 16 g ai/ha, scale 0 to 100
Procedure, shortened: as §4

[11] = 31 g ai/ha, scale of 0 to 100, 0 is no effect, 100 is complete control
[12] = 62 g ai/ha, scale of 0 to 100, 0 is no effect, 100 is complete control
[13] = 125 g ai/ha, scale 0 to 100, 0 no effect, 100 complete control
[14] = 250 g ai/ha, scale 0 to 100, 0 no effect, 100 complete control
[15] = Postemergence, 31 g ai/ha, scale 0 to 100 (0 no effect, 100 complete control)
[16] = Postemergence, 62 g ai/ha, scale 0 to 100 (0 no effect, 100 complete control)
[17] = Postemergence, 125 g ai/ha, scale 0 to 100, 0 no effect, 100 complete control
[18] = Postemergence, 250 g ai/ha, scale 0 to 100
[19] = Preemergence, 31 g ai/ha, scale of 0 to 100, 0 is no effect, 100 is complete control
[20] = Preemergence, 62 g ai/ha, scale of 0 to 100, 0 is no effect, 100 is complete control
[21] = Preemergence, 125 g ai/ha, scale 0 to 100, 0 no effect, 100 complete control
[22] = Preemergence, 250 g ai/ha, scale 0 to 100, 0 no effect, 100 complete control
[23] = 31 g ai/ha, scale 0 to 100 (0 no effect, 100 complete control)
[24] = 62 g ai/ha, scale 0 to 100 (0 no effect, 100 complete control)
[25] = Postemergence, 250 g ai/ha, scale 0 to 100 (0 no effect, 100 complete control)
[26] = Postemergence, 16 g ai/ha, scale 0 to 100
[27] = Preemergence, 16 g ai/ha, scale 0 to 100 (0 no effect, 100 complete control)
[28] = Preemergence, 31 g ai/ha, scale 0 to 100 (0 no effect, 100 complete control)
[29] = Preemergence, 62 g ai/ha, scale 0 to 100
[30] = Preemergence, 125 g ai/ha, scale 0 to 100

Cc1nn(-c2ccc(C(F)(F)F)cc2)nc1Cc1ccnc(C(F)(F)F)c1 [Compound 47, 4-[[5-methyl-2-[4-(trifluoromethyl)phenyl]-2H-1,2,3-triazol-4-yl]methyl]-2-(trifluoromethyl)pyridine]
Plant response rating, Russian Thistle [1, 11]: 85 | Plant response rating, Russian Thistle [1, 12]: 100 | Plant response rating, Russian Thistle [1, 13]: 100 | Plant response rating, Russian Thistle [1, 14]: 100 | Plant response rating, Surinam Grass [2, 15]: 5 | Plant response rating, Surinam Grass [2, 16]: 10 | Plant response rating, Surinam Grass [2, 17]: 60 | Plant response rating, Surinam Grass [2, 18]: 60 | Plant response rating, Surinam Grass [2, 19]: 5 | Plant response rating, Surinam Grass [2, 20]: 20 | Plant response rating, Surinam Grass [2, 21]: 65 | Plant response rating, Surinam Grass [2, 22]: 65 | Plant response rating, Windgrass [3, 23]: 60 | Plant response rating, Windgrass [3, 24]: 80 | Plant response rating, Windgrass [3, 13]: 85 | Plant response rating, Windgrass ([3]; 250 g ai/ha, scale 0 to 100): 100 | Plant response rating, Bromegrass, Downy [4, 15]: 10 | Plant response rating, Bromegrass, Downy [4, 16]: 30 | Plant response rating, Bromegrass, Downy [4, 17]: 50 | Plant response rating, Bromegrass, Downy [4, 18]: 65 | Plant response rating, Bromegrass, Downy [4, 19]: 15 | Plant response rating, Bromegrass, Downy ([4]; Preemergence, 62 g ai/ha, scale 0 to 100, 0 no effect, 100 complete control): 40 | Plant response rating, Bromegrass, Downy [4, 21]: 90 | Plant response rating, Bromegrass, Downy [4, 22]: 100 | Plant response rating, Barley [5, 23]: 35 | Plant response rating, Barley [5, 24]: 45 | Plant response rating, Barley [5, 13]: 50 | Plant response rating, Barley ([5]; 250 g ai/ha, scale 0 to 100): 55 | Plant response rating, Foxtail, Green [6, 15]: 20 | Plant response rating, Foxtail, Green [6, 16]: 98 | Plant response rating, Foxtail, Green [6, 17]: 100 | Plant response rating, Foxtail, Green [6, 18]: 100 | Plant response rating, Foxtail, Green [6, 19]: 100 | Plant response rating, Foxtail, Green [6, 20]: 100 | Plant response rating, Foxtail, Green [6, 21]: 100 | Plant response rating, Foxtail, Green [6, 22]: 100

Cc1nn(-c2ccnc(C(F)(F)F)c2)nc1Cc1ccnc(C(F)(F)F)c1 [Compound 137]
Plant response rating: Lambsquarters [7, 15]: 75 | Plant response rating: Lambsquarters [7, 16]: 80 | Plant response rating: Lambsquarters [7, 17]: 95 | Plant response rating: Lambsquarters [7, 25]: 95 | Plant response rating, Lambsquarters [7, 26]: 40 | Plant response rating, Surinam Grass [2, 15]: 40 | Plant response rating, Surinam Grass [2, 16]: 45 | Plant response rating, Surinam Grass [2, 17]: 45 | Plant response rating, Surinam Grass [2, 18]: 45 | Plant response rating, Windgrass [3, 23]: 40 | Plant response rating, Windgrass [3, 24]: 50 | Plant response rating, Windgrass [3, 13]: 70 | Plant response rating, Windgrass ([3]; 250 g ai/ha, scale 0 to 100): 90 | Plant response rating: Pigweed [8, 15]: 90 | Plant response rating: Pigweed [8, 16]: 95 | Plant response rating: Pigweed [8, 17]: 100 | Plant response rating: Pigweed [8, 25]: 100 | Plant response rating, Pigweed [8, 26]: 90 | Plant response rating: Oilseed Rape [9, 15]: 90 | Plant response rating: Oilseed Rape [9, 16]: 98 | Plant response rating: Oilseed Rape [9, 17]: 100 | Plant response rating: Oilseed Rape [9, 25]: 100 | Plant response rating, Oilseed Rape [9, 26]: 70 | Plant response rating, Bromegrass, Downy [4, 15]: 10 | Plant response rating, Bromegrass, Downy [4, 16]: 30 | Plant response rating, Bromegrass, Downy [4, 17]: 60 | Plant response rating, Bromegrass, Downy [4, 18]: 85 | Plant response rating, Barley [5, 23]: 10 | Plant response rating, Barley [5, 24]: 10 | Plant response rating, Barley [5, 13]: 30 | Plant response rating, Barley ([5]; 250 g ai/ha, scale 0 to 100): 35 | Plant response rating: Galium [10, 23]: 20 | Plant response rating: Galium [10, 24]: 40 | Plant response rating: Galium [10, 13]: 75 | Plant response rating: Galium ([10]; 250 g ai/ha, scale 0 to 100 (0 no effect, 100 complete control)): 75 | Plant response rating, Galium [10]: 20 | Plant response rating, Foxtail, Green [6, 15]: 80 | Plant response rating, Foxtail, Green [6, 16]: 85 | Plant response rating, Foxtail, Green [6, 17]: 95 | Plant response rating, Foxtail, Green [6, 18]: 95

Cc1nn(-c2ccc(F)c(C(F)(F)F)c2)nc1Oc1ccnc(C(F)(F)F)c1 [Compound 147]
Plant response rating, Russian Thistle [1, 11]: 0 | Plant response rating, Russian Thistle [1, 12]: 90 | Plant response rating, Russian Thistle [1, 13]: 90 | Plant response rating, Russian Thistle [1, 14]: 90 | Plant response rating: Lambsquarters [7, 15]: 75 | Plant response rating: Lambsquarters [7, 16]: 90 | Plant response rating: Lambsquarters [7, 17]: 95 | Plant response rating, Lambsquarters [7, 26]: 75 | Plant response rating, Lambsquarters [7, 27]: 5 | Plant response rating, Lambsquarters [7, 28]: 50 | Plant response rating, Lambsquarters [7, 29]: 80 | Plant response rating, Lambsquarters [7, 30]: 85 | Plant response rating, Surinam Grass [2, 19]: 55 | Plant response rating, Surinam Grass [2, 20]: 80 | Plant response rating, Surinam Grass [2, 21]: 95 | Plant response rating, Surinam Grass [2, 22]: 95 | Plant response rating: Pigweed [8, 15]: 70 | Plant response rating: Pigweed [8, 16]: 85 | Plant response rating: Pigweed [8, 17]: 95 | Plant response rating, Pigweed [8, 26]: 75 | Plant response rating, Pigweed [8, 27]: 35 | Plant response rating, Pigweed [8, 28]: 75 | Plant response rating, Pigweed [8, 29]: 80 | Plant response rating, Pigweed [8, 30]: 100 | Plant response rating: Oilseed Rape [9, 15]: 60 | Plant response rating: Oilseed Rape [9, 16]: 95 | Plant response rating: Oilseed Rape [9, 17]: 100 | Plant response rating, Oilseed Rape [9, 26]: 25 | Plant response rating, Oilseed Rape [9, 27]: 0 | Plant response rating, Oilseed Rape [9, 28]: 0 | Plant response rating, Oilseed Rape [9, 29]: 5 | Plant response rating, Oilseed Rape [9, 30]: 15 | Plant response rating, Bromegrass, Downy [4, 19]: 10 | Plant response rating, Bromegrass, Downy [4, 20]: 45 | Plant response rating, Bromegrass, Downy [4, 21]: 85 | Plant response rating, Bromegrass, Downy [4, 22]: 90 | Plant response rating: Galium [10, 23]: 65 | Plant response rating: Galium [10, 24]: 75 | Plant response rating: Galium [10, 13]: 90 | Plant response rating, Galium [10]: 55 | Plant response rating, Foxtail, Green [6, 19]: 95 | Plant response rating, Foxtail, Green [6, 20]: 95 | Plant response rating, Foxtail, Green [6, 21]: 95 | Plant response rating, Foxtail, Green [6, 22]: 95

— patent publication US9302999B2, “Substituted triazoles as herbicides” (E. I. DU PONT DE NEMOURS AND COMPANY, priority 2012, dated 2016)
